US20140249218A1, “ADMINISTRATION OF INGENOL MEBUTATE” (LEO Laboratories Limited, priority 2013, published 2014)

Assays:
tumors = test: Mouse xenograft models, intratumoral injection; type: in vivo
skin = test: UV irradiation studies (photoirritation, photoallergy); type: in vivo; conditions: ingenol mebutate 0.01%, single and multiple applications
Excerpt: Studies have been conducted to assess the effects of UV irradiation on the skin following single and multiple applications of ingenol mebutate, 0.01%. […] However, excessive exposure to sunlight (including sunlamps and tanning beds) should be avoided or minimized during use of TRADEMARK Gel due to the nature of the disease.

mouse lymphoma = test: Mouse lymphoma assay; type: cell-based
Description: (§1) Carcinogenic evaluations of ingenol mebutate have not been conducted. Ingenol mebutate was not mutagenic in an in vitro Ames test, mouse lymphoma assay, and in vivo rat micronucleus test. Ingenol mebutate was positive in the Syrian hamster embryo (SHE) cell transformation assay at concentrations≧0.1 μg/mL.

[1] = tested on: Syrian hamster embryo (SHE) cell; test: Syrian hamster embryo (SHE) cell transformation assay; type: cell-based
Description: as §1

tumor cells = test: Direct cytotoxic effect at high concentrations; type: cell-based; conditions: e.g., 100 μg/mL
Excerpt: (§2) Ingenol mebutate is a pleiotropic effector that exerts a direct cytotoxic effect on tumor cells and modulates Protein Kinase C (PKC) isoforms.

rabbits = test: Teratogenicity study, intravenous route, rabbits; type: in vivo, rabbit; conditions: rabbits
Description: (§3) Teratogenicity studies with ingenol mebutate were performed by the intravenous route in rats and rabbits.
(§4) In rats, ingenol mebutate was not associated with fetal developmental effects at doses up to 5 μg/kg/day (30 μg/m^2/day).
(§5) The fetal NOAEL was 1 μg/kg/day (12 μg/m^2/day).

[2] = Teratogenicity study, intravenous route, rabbits; type: in vivo, rabbit; conditions: female, rabbit, in vivo, 12 μg/m^2/day, read-out: fetal NOAEL
Description: as §3, §4, §5

[3] = tested on: human cytochrome P450 isoforms; test: In vitro cytochrome P450 inhibition/induction; type: in vitro ADME
[4] = Skin permeation of [3H]-PEP005, human split-thickness skin; type: in vitro ADME; conditions: gel ca 0.05% w/w
Description: (§6) The rate and extent of absorption of [^3H]-ingenol mebutate over a 24 h exposure period following topical application of the gel to Wistar (WI) rat, Sprague Dawley (SD) rat, Göttingen mini-pig and human split-thickness skin was also assessed.

human endothelial cells = test: PKC dependent activation of endothelial cells, neutrophil adhesion in vitro; type: cell-based; conditions: e.g., 10 to 100 ng/mL
Excerpt: as §2

rat = test: In vivo rat micronucleus test
Description: as §1

[5] = tested on: squamous cell carcinoma and melanoma tumor; test: Mouse xenograft squamous cell carcinoma and melanoma tumor models, topical; type: in vivo
mouse skin = test: Application to mouse skin in vivo, inflammatory mediators; conditions: subclinical concentrations
[6] = Skin permeation of [3H]-PEP005, Wistar rat split-thickness skin; type: in vitro ADME, Wistar (WI) rat
Description: as §6

rats = test: Teratogenicity study, intravenous route, rats; type: in vivo, rat; conditions: 5 μg/kg/day = 30 μg/m^2/day
Description: as §3, §4

In vitro Ames test = type: cell-based
Description: as §1

receptors and enzymes = test: Off-target activity in various in vitro assays
skin cancer cells = conditions: via rapid mitochondrial disruption and primary necrosis; normal cells less sensitive; cited from earlier work
[7] = Skin permeation of [3H]-PEP005, Sprague Dawley rat split-thickness skin; type: in vitro ADME, Sprague Dawley (SD) rat
Description: as §6

[8] = tested on: isolated human keratinocytes; test: Exposure of isolated keratinocytes in vitro; type: cell-based; conditions: subclinical concentrations
[9] = Skin permeation of [3H]-PEP005, mini-pig split-thickness skin; type: in vitro ADME, Göttingen mini-pig
Description: as §6
The maximum hourly flux was 0.44, 0.80, 2.09, and 6.12 ng equiv./cm^2/h for human, mini-pig, SD and WI rat skin, respectively. […] The flux profile for mini-pig was dissimilar to the other species/strains. […] The other three species/strains had similar flux profiles with lag times of ca 1, 2 and 3 h for the human, SD and WI rat skin, respectively. This was followed by steady state flux from 4-24 h, 6-24 h and 8-24 h, respectively. Steady state flux was 0.39, 2.01 and 5.87 ng equiv./cm^2/h for the human, SD and WI rat skin, respectively. […] These differences with the mini-pig group compared to the other three skin groups may have been attributed to the preparation of the split-thickness skin. Due to the hair follicle depth in mini-pig skin, split-thickness skin was prepared at a depth of ca […] compared to ca […] for the other skin groups. Therefore, the thicker layer of dermis for the mini-pig skin may have acted as a reservoir for [3H]-PEP005 prior to partitioning into the receptor fluid.

[10] = type: physicochemical; conditions: room temperature
Description: For the experiment, a slurry mixture of forms A, X and Y in cyclohexane was stirred for about 48 hours at room temperature. After about 24 hours, the complete sample was transformed into form A (see FIG. 17).
A polymorphic crystalline form of the compound of Formula 1 was characterized and identified as form A″ The stability of form A at room temperature was confirmed by the slurry experiments at room temperature.

[11] = Conversion of solvate forms upon heating; type: physicochemical
[12] = Stress milling (mortar and pestle); type: physicochemical; conditions: manual grinding about 2, 5 and 10 mins
Description: Crystalline ingenol mebutate is subjected to stress milling to investigate its physico-chemical stability. In the study, crystalline ingenol mebutate is manually ground using a mortar and pestle for durations of about 2, about 5 and about 10 mins.
Crystalline ingenol mebutate was subjected to stress milling (manually using a mortar and pestle) for durations of about 2, about 5 and about 10 mins.

[13] = Wistar Rat skin, gel ca 0.05% w/w
[14] = Sprague Dawley Rat skin, gel ca 0.05% w/w
[15] = Mini-Pig skin, gel ca 0.05% w/w, NO = not observed
[16] = mini-pig skin vs human skin, % applied dose
[17] = mini-pig skin, gel ca 0.05% w/w
[18] = WI rat skin vs human skin, % applied dose
[19] = SD rat skin vs human skin, % applied dose

Structure (SMILES): C/C=C(/C)C(=O)O[C@H]1C(C)=C[C@]23C(=O)[C@@H](C=C(CO)[C@@H](O)[C@]12O)[C@H]1[C@@H](C[C@H]3C)C1(C)C [ingenol mebutate, (1 aR,2S,5R,5aS,6S,8aS,9R,10aR)-5,5a-dihydroxy-4-(hydroxymethyl)-1,1,7,9-tetramethyl-11-oxo-1a,2,5,5a,6,9,10,10a-octahydro-1H2,8a-methanocyclopenta[a]cyclopropa[e]cyclodecen-6-yl(2Z)-2-methylbut-2-enoate]
- immune response after intratumoral injection (tumors): stimulated a tumor-specific CD8+T cell response with anti-tumor activity against distant secondary tumors
- photoirritation or photoallergy effects (skin): did not demonstrate any potential for photoirritation or photoallergy effects
- mutagenicity (mouse lymphoma): not mutagenic
- concentrations positive in SHE cell transformation assay ([1]; Syrian hamster, Syrian hamster embryo (SHE) cells): ≥ 100 ng/mL
- cell transformation result ([1]; concentrations≧0.1 μg/mL): positive
- effect on cells at high concentrations (tumor cells): induces mitochondrial swelling and loss of cell membrane integrity leading to cell death
- doses at which maternal toxicity (increased breathing) was observed (rabbits; 1 μg/kg/day = 12 μg/m^2/day): ≥ 1 µg/kg/day
- doses with slight increase in incidence of incompletely ossified cervical vertebral arches (rabbits; 2 μg/kg/day = 24 μg/m^2/day): ≥ 2 µg/kg/day
- embryo-fetal findings (rabbits; 4 μg/kg/day (48 μg/m^2/day), marginal, not statistically significant): slight increase in embryonic deaths, an increase in jugular fusion to the maxilla and a variation in the origin of arteries arising from the aortic arch
- NOAEL [2]: 0.001 mg/kg/day
- inhibition or induction of cytochrome P450 isoforms [3]: does not inhibit or induce human cytochrome P450 isoforms
- Lag Time [4]: 1 h
- Period of Steady State Flux [4]: 4.24 h
- Steady State Flux [4]: 0.39 ng equiv./cm^2/h
- effect on endothelial cells at subclinical concentrations (human endothelial cells): stimulates PKC dependent activation of human endothelial cells to support neutrophil adhesion
- mutagenicity (rat): not mutagenic
- effect on tumors [5]: removes tumors and prevents tumor recurrence
- release of inflammatory mediators in mouse skin (mouse skin): induced the release of inflammatory mediators IL-8/MIP-2 and TNF-α resulting in neutrophil recruitment and activation
- Lag Time [6, 13]: 3 h
- Period of Steady State Flux [6, 13]: 8.24 h
- Steady State Flux [6, 13]: 5.87 ng equiv./cm^2/h
- doses not associated with fetal developmental effects (rats): up to 5 μg/kg/day
- mutagenicity (In vitro Ames test): not mutagenic
- off-target activity (receptors and enzymes): did not inhibit or stimulate receptors and enzymes
- toxicity for skin cancer cells (skin cancer cells): highly toxic
- Lag Time [7, 14]: 2 h
- Period of Steady State Flux [7, 14]: 6.24 h
- Steady State Flux [7, 14]: 2.01 ng equiv./cm^2/h
- effect on keratinocytes [8]: cytokine release and specific PKC-mediated neutrophil activation

Structure (SMILES): C/C=C(/C)C(=O)O[C@H]1C(C)=C[C@]23C(=O)[C@@H](C=C(CO)[C@@H](O)[C@]12O)[C@H]1C(C[C@H]3C)C1(C)C (stereo in doubt) [[^3H]-ingenol mebutate]
- Unabsorbed Dose ([9]; Mini-Pig skin, gel ca 0.05% w/w, 24 h exposure): 93.35 % Applied Dose
- Lag Time [9, 15]: no apparent lag time
- Steady State Flux [9, 15]: no apparent lag time or steady state flux observed
- dermal delivery compared to human skin, fold greater [9, 16]: ~7.9 fold
- total absorption compared to human skin, fold less [9, 16]: ~1.4 fold
- maximum hourly flux [9, 17]: 0.80 ng equiv./cm^2/h
- time post dose at which maximum flux was achieved [9, 17]: 1 h
- Lag Time [4]: ~1 h
- Period of Steady State Flux [4]: 4 to 24 h
- Steady State Flux [4]: 0.39 ng equiv./cm^2/h
- maximum hourly flux [4]: 0.44 ng equiv./cm^2/h
- time post dose at which maximum flux was achieved [4]: 16 h
- Unabsorbed Dose ([4]; 24 h exposure): 101.09 % Applied Dose
- steady state flux compared to human skin, fold greater ([6]; WI rat skin vs human skin): ~15.1 fold
- dermal delivery compared to human skin, fold greater [6, 18]: ~9.2 fold
- total absorption compared to human skin, fold greater [6, 18]: ~13.8 fold
- maximum hourly flux ([6]; WI rat skin, gel ca 0.05% w/w): 6.12 ng equiv./cm^2/h
- time post dose at which maximum flux was achieved ([6]; WI rat skin, gel ca 0.05% w/w): 16 h
- Lag Time [6, 13]: ~3 h
- Period of Steady State Flux [6, 13]: 8 to 24 h
- Steady State Flux [6, 13]: 5.87 ng equiv./cm^2/h
- Unabsorbed Dose ([6]; Wistar Rat skin, gel ca 0.05% w/w, 24 h exposure): 90.31 % Applied Dose
- steady state flux compared to human skin, fold greater ([7]; SD rat skin vs human skin): ~5.2 fold
- dermal delivery compared to human skin, fold greater [7, 19]: ~5.1 fold
- total absorption compared to human skin, fold greater [7, 19]: ~4.9 fold
- maximum hourly flux ([7]; SD rat skin, gel ca 0.05% w/w): 2.09 ng equiv./cm^2/h
- Lag Time [7, 14]: ~2 h
- Period of Steady State Flux [7, 14]: 6 to 24 h
- Steady State Flux [7, 14]: 2.01 ng equiv./cm^2/h
- Unabsorbed Dose ([7]; Sprague Dawley Rat skin, gel ca 0.05% w/w, 24 h exposure): 94.40 % Applied Dose

Structure (SMILES): C/C=C(/C)C(=O)O[C@H]1C(C)=C[C@]23C(=O)[C@@H](C=C(CO)[C@@H](O)[C@]12O)[C@H]1[C@@H](C[C@H]3C)C1(C)C [form X, ingenol mebutate]
- time to conversion to form A in slurry ([10]; slurry of forms A, X and Y in c-hexane): about 24 hours
- behaviour upon heating [11]: converted into form A upon heating

Structure (SMILES): C/C=C(/C)C(=O)O[C@H]1C(C)=C[C@]23C(=O)[C@@H](C=C(CO)[C@@H](O)[C@]12O)[C@H]1[C@@H](C[C@H]3C)C1(C)C [form A, ingenol mebutate]
- physico-chemical stability on milling [12]: remained unaltered
- relative stability of forms A, X and Y [10]: most stable form at room temperature
